From patent US8772499B2, “TRPV3 modulators” (AbbVie Inc., priority 2011, dated 2014) come the findings set out here.

A short description of series [1]: In vitro rat microsomal stability assay. It is filed as in vitro ADME, rat (Sprague-Dawley). As to conditions: Sprague-Dawley, rat, microsomes, 0.5 h, 0.5 μM, pH 7.4. A digest of the protocol:
(§1)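 Incubations ran at 37° C. in microsomal preparations of rat (Sprague-Dawley) or human liver, with NADPH present, including at time zero.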

Series [2] can be described thus: In vitro human microsomal stability assay. The class given is in vitro ADME. The note with it: human, microsomes, 0.5 h, 0.5 μM, pH 7.4. A digest of the protocol:
as §1

The target of series [3] is T1, human TRPV3 (Homo sapiens, UniProt Q8NET8).
T1 construct: expressed in transfected cells
T1 sequence (Q8NET8 1-790): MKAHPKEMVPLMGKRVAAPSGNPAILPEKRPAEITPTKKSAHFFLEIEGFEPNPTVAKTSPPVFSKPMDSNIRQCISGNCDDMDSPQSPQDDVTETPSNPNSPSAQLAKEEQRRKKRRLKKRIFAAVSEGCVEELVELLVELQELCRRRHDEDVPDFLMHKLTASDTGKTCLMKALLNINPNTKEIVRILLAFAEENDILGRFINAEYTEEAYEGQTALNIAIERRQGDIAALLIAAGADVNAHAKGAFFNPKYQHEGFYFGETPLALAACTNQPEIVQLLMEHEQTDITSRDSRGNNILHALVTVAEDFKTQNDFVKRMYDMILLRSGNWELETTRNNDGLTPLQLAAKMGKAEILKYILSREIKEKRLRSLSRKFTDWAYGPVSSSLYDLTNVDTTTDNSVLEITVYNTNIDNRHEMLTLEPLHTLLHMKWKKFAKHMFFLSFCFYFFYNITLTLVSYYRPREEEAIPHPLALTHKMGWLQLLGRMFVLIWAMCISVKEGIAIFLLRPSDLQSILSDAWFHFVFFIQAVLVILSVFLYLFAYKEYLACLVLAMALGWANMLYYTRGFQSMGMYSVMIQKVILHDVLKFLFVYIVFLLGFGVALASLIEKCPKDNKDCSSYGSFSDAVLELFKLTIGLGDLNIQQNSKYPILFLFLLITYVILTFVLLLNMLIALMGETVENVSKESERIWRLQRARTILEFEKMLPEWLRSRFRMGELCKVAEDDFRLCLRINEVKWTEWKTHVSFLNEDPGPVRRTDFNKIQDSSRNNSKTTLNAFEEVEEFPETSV
Put plainly: In vitro antagonism of recombinant human TRPV3 activation (FLIPR Tetra calcium assay). It is filed as cell-based. The note with it: HEK293 cells stably expressing human TRPV3, agonist 2-APB at 80 μM. The method in brief:
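Calcium flux read over a 10 min run: compound added at 10 s to Calcium-4-loaded human TRPV3-HEK293 cells, agonist 2-APB (80 μM, its EC80) after 3 min. IC50 derived from peak-minus-baseline signal as percentage of uninhibited 2-APB response, typically averaged over at least two runs.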

The mark [4] stands for this setting: actual measured value shown parenthetically, in most cases average of at least two runs, read-out: IC50.

pIC50: −log10 of the molar value. Where two headings read alike, the source gives them in different places.

The term pIC50 denotes the negative decadic logarithm of the IC50, by convention in mol/L. Turning to `CC1(O)CC(c2cccc(C(F)(F)F)c2)(C(O)c2ccccn2)C1` (single isomer, unassigned) [Example 244], the “RAT MICROSOMAL STABILITY (% REMAINING AFTER 30 MINUTES)” value in series [1] was determined as 77%. Further, the “HUMAN MICROSOMAL STABILITY (% REMAINING AFTER 30 MINUTES)” value in series [2] is given as 80%. The pIC50 in series [3] (setting [4]) was 5.44.
As to `OC1CC(c2ccc(Cl)c(Cl)c2)(C(O)c2ccccn2)C1` (single isomer, unassigned) [Example 247], in series [1], the “RAT MICROSOMAL STABILITY (% REMAINING AFTER 30 MINUTES)” value was more than 85%. For the same compound, the “HUMAN MICROSOMAL STABILITY (% REMAINING AFTER 30 MINUTES)” value in series [2] is recorded as 62%. The pIC50 in series [3] (setting [4]) was 5.37.
The like results for `O=C1CC(c2cccc(OC(F)(F)F)c2)([C@H](O)c2ccccn2)C1` (single isomer, unassigned) [Example 256] were, in that order, 55%, 44% and 5.65.
Take `O=C1CC(c2cccc(OC(F)(F)F)c2)([C@@H](O)c2ccccn2)C1` (single isomer, unassigned) [Example 257]: the “RAT MICROSOMAL STABILITY (% REMAINING AFTER 30 MINUTES)” value in series [1] amounted to 57%. In addition, the “HUMAN MICROSOMAL STABILITY (% REMAINING AFTER 30 MINUTES)” value in series [2] is reported as 42%. Also, the pIC50 in series [3] (setting [4]) was 5.02.
Consider `O=C1CC(c2ccc(F)c(Cl)c2)([C@H](O)c2ccccn2)C1` (single isomer, unassigned) [Example 268], for which the “RAT MICROSOMAL STABILITY (% REMAINING AFTER 30 MINUTES)” value in series [1] amounted to 82%. Besides, in series [2], the “HUMAN MICROSOMAL STABILITY (% REMAINING AFTER 30 MINUTES)” value was found to be 66%. The pIC50 in series [3] (setting [4]) is 5.67.
Consider `OC1CC(c2cccc(OC(F)(F)F)c2)(C(O)c2ccccn2)C1` (single isomer, unassigned) [Example 272], for which the “RAT MICROSOMAL STABILITY (% REMAINING AFTER 30 MINUTES)” value in series [1] stood at 48%. The “HUMAN MICROSOMAL STABILITY (% REMAINING AFTER 30 MINUTES)” value in series [2] is on record as 54%. Also, the pIC50 in series [3] (setting [4]) was 6.72.
Take `OC1CC(c2cccc(OC(F)(F)F)c2)(C(O)c2ccccn2)C1` (single isomer, unassigned) [Example 273]: the “RAT MICROSOMAL STABILITY (% REMAINING AFTER 30 MINUTES)” value in series [1] is recorded as 65%. For the same compound, in series [2], the “HUMAN MICROSOMAL STABILITY (% REMAINING AFTER 30 MINUTES)” value turned out to be 42%. The pIC50 in series [3] (setting [4]) was 7.05.
On to `CC1(O)CC(c2ccnc(C(F)(F)F)c2)(C(O)c2ccccn2)C1` (single isomer, unassigned) [Example 307], for which the “RAT MICROSOMAL STABILITY (% REMAINING AFTER 30 MINUTES)” value in series [1] is more than 85%. In series [2], the “HUMAN MICROSOMAL STABILITY (% REMAINING AFTER 30 MINUTES)” value came to 73%. The pIC50 in series [3] (setting [4]) is 5.08.
For `CC1(O)CC(c2cncc(C(F)(F)F)c2)(C(O)c2ccccn2)C1` (single isomer, unassigned) [Example 308], the “RAT MICROSOMAL STABILITY (% REMAINING AFTER 30 MINUTES)” value in series [1] was determined as 13%. Moreover, the “HUMAN MICROSOMAL STABILITY (% REMAINING AFTER 30 MINUTES)” value in series [2] is on record as 41%. The negative logarithm of the IC50 (pIC50) in series [3] (setting [4]) was 6.00.
`OC1CC(c2ccc(Cl)c(Cl)c2)(C(O)c2ncccn2)C1` (single isomer, unassigned) [Example 312]: the “RAT MICROSOMAL STABILITY (% REMAINING AFTER 30 MINUTES)” value in series [1] is given as more than 85%. For the same compound, the “HUMAN MICROSOMAL STABILITY (% REMAINING AFTER 30 MINUTES)” value in series [2] was more than 85%. For the same compound, in series [3] (setting [4]), the pIC50 was 5.71.
Regarding `OC1CC(c2ccc(Cl)c(Cl)c2)(C(O)c2ncccn2)C1` (single isomer, unassigned) [Example 313], the “RAT MICROSOMAL STABILITY (% REMAINING AFTER 30 MINUTES)” value in series [1] was more than 85%. Also, the “HUMAN MICROSOMAL STABILITY (% REMAINING AFTER 30 MINUTES)” value in series [2] is given as 81%. Moreover, the pIC50 in series [3] (setting [4]) was less than 4.70; in series [3] (reported range, read-out: IC50 (range class)), less than 4.70.
As to `OC(c1ccccn1)C1(c2ccccc2F)CCC1` (stereo not shown) [Example 1, [1-(2-fluorophenyl)cyclobutyl](pyridin-2-yl)methanol], in series [1], the “RAT MICROSOMAL STABILITY (% REMAINING AFTER 30 MINUTES)” value was determined as 0.48%. Moreover, the “HUMAN MICROSOMAL STABILITY (% REMAINING AFTER 30 MINUTES)” value in series [2] was 0.38%. The pIC50 in series [3] (setting [4]) is 5.82.
The like results for `OC(c1ccccn1)C1(c2cccc(F)c2)CCC1` (stereo not shown) [Example 2, [1-(3-fluorophenyl)cyclobutyl](pyridin-2-yl)methanol] were, in that order, 0.64%, 17% and 6.49.
